Values quoted from earlier work as cited in publication PMC12650809, “Evolving Therapeutic Landscape of ROS1-Positive Non-Small Cell Lung Cancer: An Updated Review” (Current Oncology, 2025).
Where two headings read alike, the source gives them in different places. Marks after values point to notes of the source that are not given here.

Columns and labels:
ROS1-positive NSCLC [1] = conditions: for TKI-Naive ORR (%) / mPFS (Months): TKI-naïve patients; for IC-ORR (%): TKI-naïve patients evaluable for intracranial ORR
ROS1^G2032R = tested on: ROS1^G2032R; design: method as in PMID 38070596; conditions: solvent-front substitution
ROS1^L2086F = tested on: ROS1^L2086F; design: method as in PMID 38070596; conditions: for resistance or sensitivity conferred by ROS1^L2086F: L2086F alone or in combination with G2032R or S1986F, preclinical models; for resistance or activity with L2086F: ATP-binding pocket
[2] = tested on: advanced ROS1-positive NSCLC
ROS1-positive NSCLC [3] = tested on: ROS1-positive NSCLC; design: method as in earlier work; conditions: WCLC 2025 Abstract 4540; for IC-ORR (%) / TKI-Pretreated ORR (%) / mPFS (Months): TKI-pretreated patients
ROS1-positive NSCLC [4] = tested on: ROS1-positive NSCLC
ROS1-positive NSCLC [5] = tested on: ROS1-positive NSCLC; remark: listed apart in the source
ROS1-positive NSCLC [6] = tested on: ROS1-positive NSCLC; design: method as in PMID 29596029; conditions: 127 patients
[7] = tested on: advanced ROS1-positive NSCLC; remark: listed apart in the source
ROS1-positive NSCLC [8] = tested on: ROS1-positive NSCLC; design: method as in PMID 30978502; conditions: 34 patients
ROS1-positive NSCLC [9] = tested on: ROS1-positive NSCLC; design: method as in PMID 31584608
[10] = tested on: advanced ROS1-rearranged NSCLC; design: method as in PMID 38197815
[11] = tested on: ROS1^G2032R and D2033N mutations; conditions: preclinical, in vitro
[12] = isolated intracranial progression on crizotinib, n = 18
[13] = 13 patients harboring ROS1^G2032R
[14] = previously treated with a ROS1 TKI, n = 113
[15] = ROS1 TKI-naïve patients, n = 71
[16] = previously treated with a ROS1-targeted TKI, n = 56

For CN1CCN(c2ccc(C(=O)Nc3n[nH]c4ccc(Cc5cc(F)cc(F)c5)cc34)c(NC3CCOCC3)c2)CC1 [Entrectinib, entrectinib], the “TKI-Naive ORR (%)” value (ROS1-positive NSCLC [1]) is given as 68%, the “mPFS (Months)” value (ROS1-positive NSCLC [1]) is given as 15.7 Months and the “IC-ORR (%)” value (ROS1-positive NSCLC [1]) is given as 80 ^a %. The “resistance or sensitivity with ROS1^G2032R” value (ROS1^G2032R) was “high-level resistance”, the “resistance or sensitivity conferred by ROS1^L2086F” value (ROS1^L2086F) was “cross-resistance” and the ORR ([2]; 168 TKI-naïve patients) was 68%. The complete responses ([2]; 168 TKI-naïve patients) was 13%, the “median DOR” value ([2]; 168 TKI-naïve patients) was 20.5 months and the “median OS” value ([2]; 168 TKI-naïve patients) was 47.8 months. The “median PFS” value ([2]; 168 TKI-naïve patients) was 15.7 months, the “median intracranial DOR” value ([2]; baseline BMs) was 12.9 months and the “intracranial ORR” value ([2]; baseline BMs with measurable disease) was 80%. The “global ORR” value [2, 12] was 11%, the “intracranial ORR” value [2, 12] was 19% and the “median PFS” value [2, 12] was 4.7 months.
For C[C@@H](N)COc1ccc(-c2cnc3ccc(N[C@H](C)c4cccc(F)c4)nn23)cc1 [Taletrectinib, taletrectinib], the “TKI-Naive ORR (%)” value (ROS1-positive NSCLC [1]) is listed as 88.8%, the “mPFS (Months)” value (ROS1-positive NSCLC [1]) is listed as 45.6 Months and the “IC-ORR (%)” value (ROS1-positive NSCLC [1]) is listed as 76.5 ^e %. For the same compound, the “IC-ORR (%)” value (ROS1-positive NSCLC [3]) was 65.6%, the “TKI-Pretreated ORR (%)” value (ROS1-positive NSCLC [3]) was 55.8% and the “mPFS (Months)” value (ROS1-positive NSCLC [3]) was 9.7 Months. For the same compound, the “Notable AEs: QT prolongation” value (ROS1-positive NSCLC [4]) was 18%, the “Notable AEs: diarrhea” value (ROS1-positive NSCLC [4]) was 61% and the “Notable AEs: dizziness” value (ROS1-positive NSCLC [4]) was 15%. For the same compound, the “Notable AEs: increased AST/ALT” value (ROS1-positive NSCLC [4]) was 70%, the “Notable AEs: nausea” value (ROS1-positive NSCLC [4]) was 44% and the “Notable AEs: vomiting” value (ROS1-positive NSCLC [4]) was 41%. For the same compound, the “Main Grade ≥ 3 AEs: QT prolongation” value (ROS1-positive NSCLC [4]; grade ≥ 3) was 3%, the “Main Grade ≥ 3 AEs: anemia” value (ROS1-positive NSCLC [4]; grade ≥ 3) was 3% and the “Main Grade ≥ 3 AEs: diarrhea” value (ROS1-positive NSCLC [4]; grade ≥ 3) was 3%. For the same compound, the “Main Grade ≥ 3 AEs: increased AST/ALT” value (ROS1-positive NSCLC [4]; grade ≥ 3) was 9%, the “Main Grade ≥ 3 AEs: neutropenia” value (ROS1-positive NSCLC [4]; grade ≥ 3) was 4% and the “resistance or sensitivity with ROS1^G2032R” value (ROS1^G2032R) was “some sensitivity”. For the same compound, the “resistance or activity with L2086F” value (ROS1^L2086F) was “cross-resistance”, the “rate of treatment discontinuation due to toxicity” value (ROS1-positive NSCLC [5]) was 6.5% and the objective response rate (ROS1-positive NSCLC [5]; [13]) was 61.5%. For the same compound, the “patients with objective response (number)” value (ROS1-positive NSCLC [5]; [13]) was 8, the diarrhea (ROS1-positive NSCLC [5]; AEs, predominantly grade 1) was 61% and the nausea (ROS1-positive NSCLC [5]; AEs, predominantly grade 1) was 44%. For the same compound, the transaminase elevation (ROS1-positive NSCLC [5]; AEs, predominantly grade 1) was 70%, the “confirmed ORR” value (ROS1-positive NSCLC [5]; TKI-naïve patients, n = 160) was 88.8% and the “median DOR” value (ROS1-positive NSCLC [5]; TKI-naïve patients, n = 160) was 44.2 months. The “median PFS” value (ROS1-positive NSCLC [5]; TKI-naïve patients, n = 160) was 45.6 months, the “intracranial ORR” value (ROS1-positive NSCLC [5]; TKI-naïve, measurable BMs) was 76.5% and the “median intracranial DOR” value (ROS1-positive NSCLC [5]; TKI-naïve, measurable BMs) was 14.7 months. For the same compound, the dizziness (ROS1-positive NSCLC [5]; neurological events) was 21%, the dysgeusia (ROS1-positive NSCLC [5]; neurological events) was 15% and the “intracranial ORR” value (ROS1-positive NSCLC [5]; previously treated with a ROS1 TKI) was 65.6%. For the same compound, the ORR (ROS1-positive NSCLC [5]; [14]) was 55.8%, the “median DOR” value (ROS1-positive NSCLC [5]; [14]) was 16.6 months and the “median PFS” value (ROS1-positive NSCLC [5]; [14]) was 9.7 months.
For C[C@@H](Oc1cc(-c2cnn(C3CCNCC3)c2)cnc1N)c1c(Cl)ccc(F)c1Cl [Crizotinib, crizotinib], the “TKI-Naive ORR (%)” value (ROS1-positive NSCLC [1]) is listed as 72%, the ORR (ROS1-positive NSCLC [6]) is listed as 72% and the “median PFS” value (ROS1-positive NSCLC [6]) is listed as 15.9 months. The 4-year survival probability [7] was 51%, the “AEs leading to permanent treatment discontinuation” value [7] was “No AEs led to permanent treatment discontinuation” and the “grade 4 or 5 events” value [7] was “no grade 4 or 5 events”. For the same compound, the “median PFS” value [7] was 19.3 months, the “median duration of response (DOR)” value [7] was 24.7 months and the “median overall survival (OS)” value [7] was 51.4 months. For the same compound, the “median time to response” value [7] was 7.9 weeks, the ORR ([7]; 53 patients) was 72% and the “complete responses (number)” value ([7]; 53 patients) was 6. For the same compound, the “partial responses (number)” value ([7]; 53 patients) was 32, the diarrhea ([7]; treatment-related AEs) was 44% and the nausea ([7]; treatment-related AEs) was 40%. For the same compound, the peripheral edema ([7]; treatment-related AEs) was 40%, the visual disturbances ([7]; treatment-related AEs) was 82% and the ORR (ROS1-positive NSCLC [8]) was 70%. The “median PFS” value (ROS1-positive NSCLC [8]) was 20 months, the “Notable AEs: diarrhea” value (ROS1-positive NSCLC [4]) was 44% and the “Notable AEs: nausea” value (ROS1-positive NSCLC [4]) was 40%. The “Notable AEs: visual disturbances” value (ROS1-positive NSCLC [4]) was 82%, the “Discontinuation for AEs (%)” value (ROS1-positive NSCLC [4]; WCLC 2025 Abstract 4540) was less than 1% and the “Notable AEs: peripheral edema” value (ROS1-positive NSCLC [4]; WCLC 2025 Abstract 4540) was 40%. For the same compound, the “Main Grade ≥ 3 AEs: hypophosphatemia” value (ROS1-positive NSCLC [4]; grade ≥ 3) was “Hypophosphatemia (10%), neutropenia (10%)”, the “Main Grade ≥ 3 AEs: neutropenia” value (ROS1-positive NSCLC [4]; grade ≥ 3) was “Hypophosphatemia (10%), neutropenia (10%)” and the ORR (ROS1-positive NSCLC [9]) was 69.4%. The “median PFS” value (ROS1-positive NSCLC [9]) was 5.5 months, the “resistance or sensitivity with ROS1^G2032R” value (ROS1^G2032R) was “high-level resistance” and the “resistance or sensitivity conferred by ROS1^L2086F” value (ROS1^L2086F) was “cross-resistance”.
In the case of C[C@H]1CNC(=O)c2cnn3ccc(nc23)N[C@H](C)c2cc(F)ccc2O1 [Repotrectinib, repotrectinib], the “treatment discontinuation due to AEs” value [10] is listed as 7%, the response rate ([10]; 17 patients harboring ROS1^G2032R) is listed as 59% and the dizziness ([10]; AEs, mostly grade 1–2) is listed as 58%. For the same compound, the dysgeusia ([10]; AEs, mostly grade 1–2) was 50%, the paresthesia ([10]; AEs, mostly grade 1–2) was 30% and the ORR [10, 15] was 79%. The “median DOR” value [10, 15] was 34.1 months, the “median PFS” value [10, 15] was 35.7 months and the intracranial response rate ([10]; TKI-naïve, measurable BMs at baseline) was 89%. The ORR [10, 16] was 38%, the “median PFS” value [10, 16] was 9 months and the “TKI-Naive ORR (%)” value (ROS1-positive NSCLC [1]) was 79%. For the same compound, the “mPFS (Months)” value (ROS1-positive NSCLC [1]) was 35.7 Months, the “IC-ORR (%)” value (ROS1-positive NSCLC [1]) was 89 ^d % and the “inhibitory activity against ROS1^G2032R and D2033N mutations” value [11] was “potent inhibitory activity”. The “ORR if G2032R Mutation (%)” value (ROS1-positive NSCLC [3]; TKI-pretreated patients with G2032R) was 59%, the “IC-ORR (%)” value (ROS1-positive NSCLC [3]) was 38% and the “TKI-Pretreated ORR (%)” value (ROS1-positive NSCLC [3]) was 38%. For the same compound, the “mPFS (Months)” value (ROS1-positive NSCLC [3]) was 9.0 Months, the “Notable AEs: dizziness” value (ROS1-positive NSCLC [4]) was 58% and the “Notable AEs: dysgeusia” value (ROS1-positive NSCLC [4]) was 50%. For the same compound, the “Notable AEs: paresthesia” value (ROS1-positive NSCLC [4]) was 30%, the “Discontinuation for AEs (%)” value (ROS1-positive NSCLC [4]; WCLC 2025 Abstract 4540) was 7% and the “Main Grade ≥ 3 AEs: anemia” value (ROS1-positive NSCLC [4]; grade ≥ 3) was 4%. The “Main Grade ≥ 3 AEs: dizziness” value (ROS1-positive NSCLC [4]; grade ≥ 3) was 3%, the “resistance or sensitivity with ROS1^G2032R” value (ROS1^G2032R) was “some sensitivity” and the “resistance or activity with L2086F” value (ROS1^L2086F) was “cross-resistance”.
